According to publication PMC2706530 (Hypertension, 2009):

Legend:
Assay type in all cases: biochemical
ANG-II type 1-receptor = experiment: Effect of losartan pre-incubation on ANG-II detection in isolated rat glomeruli; conditions: pre-incubation with 10 μM losartan, 1 μM ANG-I; data not shown
neprilysin = target: T1, neprilysin (Rattus norvegicus, UniProt P07861); experiment: Effect of NEP inhibitor on ANG-I conversion by isolated rat glomeruli; conditions: 10 μM thiorphan, 1 μM ANG-I, 15-90 minutes; p < 0.05 vs. untreated; n=7
T1 sequence (P07861 1-750): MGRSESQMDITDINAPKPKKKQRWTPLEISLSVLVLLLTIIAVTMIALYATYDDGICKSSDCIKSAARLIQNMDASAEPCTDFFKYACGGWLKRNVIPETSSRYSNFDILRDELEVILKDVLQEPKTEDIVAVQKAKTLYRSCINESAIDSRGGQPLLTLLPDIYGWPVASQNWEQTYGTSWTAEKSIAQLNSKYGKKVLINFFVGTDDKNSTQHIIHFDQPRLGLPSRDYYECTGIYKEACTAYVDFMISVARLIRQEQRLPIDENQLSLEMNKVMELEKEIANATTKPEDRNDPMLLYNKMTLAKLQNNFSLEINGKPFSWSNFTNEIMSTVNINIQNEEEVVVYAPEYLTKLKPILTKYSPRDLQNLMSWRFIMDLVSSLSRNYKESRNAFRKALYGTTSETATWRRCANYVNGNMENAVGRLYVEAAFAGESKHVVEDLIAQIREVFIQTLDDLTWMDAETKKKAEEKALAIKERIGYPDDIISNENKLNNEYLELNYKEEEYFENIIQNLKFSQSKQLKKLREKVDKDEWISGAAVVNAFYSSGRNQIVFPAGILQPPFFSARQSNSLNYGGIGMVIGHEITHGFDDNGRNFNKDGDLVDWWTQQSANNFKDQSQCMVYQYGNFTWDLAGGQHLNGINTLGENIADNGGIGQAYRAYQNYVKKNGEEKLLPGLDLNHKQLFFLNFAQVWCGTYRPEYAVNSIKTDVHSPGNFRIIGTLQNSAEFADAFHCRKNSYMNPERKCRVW

aminopeptidase-A = aminopeptidase-A (Rattus norvegicus, UniProt P50123); experiment: Effect of APA inhibitor on ANG-I conversion by isolated rat glomeruli; conditions: 100 μM amastatin, 1 μM ANG-I
Sequence of aminopeptidase-A (P50123 whole entry): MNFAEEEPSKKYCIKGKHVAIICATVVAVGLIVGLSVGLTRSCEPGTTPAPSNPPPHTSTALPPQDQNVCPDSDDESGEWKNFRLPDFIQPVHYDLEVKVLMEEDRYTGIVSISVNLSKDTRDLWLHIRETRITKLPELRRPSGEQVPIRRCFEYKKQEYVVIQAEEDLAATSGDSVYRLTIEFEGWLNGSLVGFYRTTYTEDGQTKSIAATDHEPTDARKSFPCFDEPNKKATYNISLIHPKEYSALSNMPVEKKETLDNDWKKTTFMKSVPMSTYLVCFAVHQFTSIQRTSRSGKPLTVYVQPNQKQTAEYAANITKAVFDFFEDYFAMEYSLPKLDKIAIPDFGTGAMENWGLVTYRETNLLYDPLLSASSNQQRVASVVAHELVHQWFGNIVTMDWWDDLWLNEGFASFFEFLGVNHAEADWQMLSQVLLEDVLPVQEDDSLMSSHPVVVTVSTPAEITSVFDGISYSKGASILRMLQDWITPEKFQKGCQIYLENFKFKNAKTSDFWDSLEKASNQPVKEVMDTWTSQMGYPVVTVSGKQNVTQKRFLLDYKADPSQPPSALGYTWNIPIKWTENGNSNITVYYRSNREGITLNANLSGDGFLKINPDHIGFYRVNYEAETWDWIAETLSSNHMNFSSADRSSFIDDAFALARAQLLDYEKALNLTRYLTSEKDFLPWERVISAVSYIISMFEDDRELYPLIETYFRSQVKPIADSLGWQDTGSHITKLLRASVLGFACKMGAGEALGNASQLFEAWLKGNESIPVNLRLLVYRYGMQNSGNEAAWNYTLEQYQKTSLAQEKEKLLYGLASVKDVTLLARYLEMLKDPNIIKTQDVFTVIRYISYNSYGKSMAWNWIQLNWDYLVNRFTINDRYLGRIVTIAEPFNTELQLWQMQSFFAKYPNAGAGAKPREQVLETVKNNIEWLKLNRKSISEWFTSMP

In the case of `CCCCc1nc(Cl)c(CO)n1Cc1ccc(-c2ccccc2-c2nn[nH]n2)cc1` [losartan], the “effect on detection of ANG-II” value (ANG-II type 1-receptor) is reported as “did not enhance the detection of ANG-II”.

With `O=C(O)CNC(=O)C(CS)Cc1ccccc1` (stereo not shown) [thiorphan] the “effect on disappearance of ANG-I (NEP inhibition)” value (neprilysin) was “significantly reduced”.

`CC(C)C[C@@H](N)[C@H](O)C(=O)N[C@H](C(=O)N[C@H](C(=O)N[C@@H](CC(=O)O)C(=O)O)C(C)C)C(C)C` [amastatin] was tested, and the “effect on disappearance of ANG-I (APA inhibition)” value (aminopeptidase-A; 15-90 minutes, p < 0.05 vs. untreated, n=7) was “significantly reduced” and the “change in ANG-II, amastatin-treated” value (aminopeptidase-A; 60 minutes) was “non-significant increase”.
